Laboratory results: US7067624B2, “Antimicrobial proteins” (Commonwealth Scientific and Industrial Research Organisation, priority 1996, dated 2006)
Where two headings read alike, the source gives them in different places. Where no end group is shown, it is not given here.

How the values were obtained:
Candida albicans = test: Antifungal growth inhibition bioassay (96-well, A600); format: cell-based
Ceratocystis paradoxa = test: as above; format: cell-based
Cercospora nicotianae = test: as above; format: cell-based
[1] = tested on: Clavibacter michiganensis; test: Antibacterial growth inhibition bioassay (96-well, A600); format: cell-based
Chalara elegans = test: Antifungal growth inhibition bioassay (96-well, A600); format: cell-based
Phytophthora cryptogea = test: as above; format: cell-based
[2] = tested on: Phytophthora parasitica nicotiana; test: as above; format: cell-based
Ralstonia solanacearum = format: cell-based
[3] = tested on: Pseudomonas syringae tabaci; test: Antibacterial growth inhibition bioassay (96-well, A600); format: cell-based
Saccharomyces cerevisiae = test: Antifungal growth inhibition bioassay (96-well, A600); format: cell-based
Escherichia coli = test: Antibacterial growth inhibition bioassay (96-well, A600); format: cell-based
fungi and bacteria = test: Antifungal and antibacterial activity bioassays, results in words; format: cell-based; conditions: for antimicrobial / antifungal activity (in words): bioassays as in Example 2
Alternaria helianthi = conditions: Table 1, no added Ca2+
[4] = Table 1, 1 mM Ca2+ in test medium

“MiAMP2c: 47-amino-acid antimicrobial protein purified from Macadamia integrifolia seeds; amino acids 118 to 164 of clone 3 (SEQ ID NO: 5) (RKQQKRYEEQQREDEEKYEERMKEGDNKRDPQQREYEDCRRHCEQQE; Partial mature peptide)” was tested, and the “IC50 + Ca^2+” value (Candida albicans; [4]) was >50 µg/mL, the “IC50 (concentration at which 50% inhibition of growth was observed)” value (Candida albicans; Table 1, no added Ca2+) was >50 µg/mL and the “IC50 + Ca^2+” value (Ceratocystis paradoxa; [4]) was >50 µg/mL. For the same substance, the “IC50 (concentration at which 50% inhibition of growth was observed)” value (Ceratocystis paradoxa; Table 1, no added Ca2+) was 20 to 50 µg/mL, the “IC50 values, Cp” value (Ceratocystis paradoxa; Table 2, media A without added Ca2+) was 20 to 50 µg/mL and the “IC50 + Ca^2+” value (Cercospora nicotianae; [4]) was 5 to 10 µg/mL. The “IC50 (concentration at which 50% inhibition of growth was observed)” value (Cercospora nicotianae; Table 1, no added Ca2+) was 5 to 10 µg/mL, the “IC50 + Ca^2+” value [1, 4] was >50 µg/mL and the “IC50 (concentration at which 50% inhibition of growth was observed)” value ([1]; Table 1, no added Ca2+) was 50 µg/mL. The “IC50 + Ca^2+” value (Chalara elegans; [4]) was 10 to 20 µg/mL, the “IC50 (concentration at which 50% inhibition of growth was observed)” value (Chalara elegans; Table 1, no added Ca2+) was 2 to 5 µg/mL and the “IC50 + Ca^2+” value (Phytophthora cryptogea; [4]) was 10 to 25 µg/mL. The “IC50 (concentration at which 50% inhibition of growth was observed)” value (Phytophthora cryptogea; Table 1, no added Ca2+) was 5 to 10 µg/mL, the “IC50 + Ca^2+” value [2, 4] was >50 µg/mL and the “IC50 (concentration at which 50% inhibition of growth was observed)” value ([2]; Table 1, no added Ca2+) was 10 to 20 µg/mL. For the same substance, the “IC50 + Ca^2+” value (Ralstonia solanacearum; [4]) was >50 µg/mL, the “IC50 (concentration at which 50% inhibition of growth was observed)” value (Ralstonia solanacearum; Table 1, no added Ca2+) was >50 µg/mL and the “IC50 + Ca^2+” value [3, 4] was >50 µg/mL. For the same substance, the “IC50 (concentration at which 50% inhibition of growth was observed)” value ([3]; Table 1, no added Ca2+) was >50 µg/mL, the “IC50 + Ca^2+” value (Saccharomyces cerevisiae; [4]) was >50 µg/mL and the “IC50 (concentration at which 50% inhibition of growth was observed)” value (Saccharomyces cerevisiae; Table 1, no added Ca2+) was 20 to 50 µg/mL. The “IC50 + Ca^2+” value (Escherichia coli; [4]) was >50 µg/mL, the “IC50 (concentration at which 50% inhibition of growth was observed)” value (Escherichia coli; Table 1, no added Ca2+) was >50 µg/mL and the “effect of Ca2+ on inhibitory activity (in words)” value (fungi and bacteria; 1 mM Ca2+ in the test medium) was “greatly reduced (although not eliminated)”. The “IC50 (concentration at which 50% inhibition of growth was observed)” value (Alternaria helianthi) was 5 to 10 µg/mL, the “IC50 + Ca^2+” value (Fusarium oxysporum; Table 1, Fusarium oxysporum, 1 mM Ca2+ in test medium) was 20 to 50 µg/mL and the “IC50 values, Foc” value (Fusarium oxysporum; Table 2, Fusarium oxysporum, media A without added Ca2+) was 10 µg/mL. The “IC50 + Ca^2+” value (Sclerotinia sclerotiorum; Table 1, Sclerotinia sclerotiorum, 1 mM Ca2+ in test medium) was >50 µg/mL, the “IC50 (concentration at which 50% inhibition of growth was observed)” value (Sclerotinia sclerotiorum; Table 1, Sclerotinia sclerotiorum, no added Ca2+) was 20 to 50 µg/mL and the “IC50 values, Ss” value (Sclerotinia sclerotiorum; Table 2, Sclerotinia sclerotiorum, media A without added Ca2+) was 20 to 50 µg/mL. For the same substance, the “IC50 + Ca^2+” value (Verticillium dahliae; Table 1, Verticillium dahliae, 1 mM Ca2+ in test medium) was >50 µg/mL, the “IC50 (concentration at which 50% inhibition of growth was observed)” value (Verticillium dahliae; Table 1, Verticillium dahliae, no added Ca2+) was 5 to 10 µg/mL and the “IC50 values, Vd” value (Verticillium dahliae; Table 2, Verticillium dahliae, media A without added Ca2+) was 5 to 10 µg/mL.

In the case of RQRDPQQQAEQAQKRAQRRETE [MiAMP2c pep1], the “antimicrobial / antifungal activity (in words)” value (fungi and bacteria) is reported as “little or no activity” and the “IC50 values, Ss” value (Sclerotinia sclerotiorum) is reported as >50 µg/mL.

“PRHMQIAQQRAERRAEKEKRKQQKR [MiAMP2c pep2]” was tested, and the “antimicrobial / antifungal activity (in words)” value (fungi and bacteria) was “inhibitory activity against a variety of fungi”, the “IC50 values, Foc” value (Fusarium oxysporum) was 10 to 20 µg/mL and the “IC50 values, Ss” value (Sclerotinia sclerotiorum) was 50 µg/mL. The “IC50 values, Vd” value (Verticillium dahliae) was 10 to 20 µg/mL and the “IC50 values, Lm” value (Leptosphaeria maculans) was 10 to 20 µg/mL.
